# Data published in patent US9642854B2, “Flavanoid compounds and process for preparation thereof” (Council of Scientific & Industrial Research, priority 2009, dated 2017).
# Read-outs that look alike come from different tables or passages of the source.
# What was measured:
# Assay type in all cases: cell-based, Helicobacter pylori
# [1] = system: H. pylori; assay: Anti H. pylori spectrum (MIC) by agar dilution method; settings: for MIC50 / MIC: Helicobacter pylori; for MIC50: MIC against 50% of the strains of the panel, read-out: MIC50
# Experimental: MIC was determined using agar dilution assay following the CLSI® guidelines. Six clinical isolates and four standard strains were used for this study. Five microlitre of freshly grown 3-day old culture (˜1×10^8 CFU/mL) was streaked in plates containing 2-fold serial dilution of the compounds ranging […], and incubated under microaerophilic condition at 37° C. After 72 h, the plates were inspected visually for absence of growth to assess the MIC values. The experiment was performed in duplicates. MIC50 is defined as the dose (μg/ml) required for killing 50% of the strains.
# Plates contained two-fold serial dilutions of the compounds ranging from […]. Five microlitres of 3-day old freshly grown H. pylori culture (^˜10^8 CFU/mL) was inoculated onto drug-containing BHI agar plates supplemented with 7% FCS, 0.5% IsoVitalex and 0.0025% DENT®, which were then incubated for 3 days under microaerophilic condition at 37° C.
# [2] = system: H. pylori; assay: Anti H. pylori screening by disc diffusion susceptibility assay; settings: 72 h; for Inhibition zone diameter (score): 100 and 200 mg/disc (so in the source)
# Experimental: The discs were impregnated with […] of each of the compounds, dissolved either in ethanol or DMSO, and the zone of inhibition was measured after 72 h of growth under microaerophilic conditions at 37° C. Inhibition zone diameter ranging 10-20 mm was given a score of ^+, 20-30 mm as ^++ and that of >30 mm as ^+++, as obtained employing dose range of […]/disc. The detailed structural information of the molecules is provided under ‘Description of the Compounds’.
# Methods and protocols for the determination of inhibition zone diameter are as stated under Experiment 1, and that of MIC values by microbroth dilution assay as in Experiment 3. ‘Nil’ means zone of inhibition below 10 mm.
# The anti H. pylori activity of all 16 flavonoid molecules, 2 naturally isolated and 14 synthetic derivatives, was screened by disc diffusion sensitivity assay employing 2 clinical strains HP001 and HP002, and three standard strains ATCC® 700392, 43504 and 49503. A 0.5 mL inoculum (10^8 CFU/mL) for each bacterial strain tested was flooded on freshly prepared Brain Heart Infusion (BHI) agar plates supplemented with 7% FCS, 0.5% IsoVitalex and 0.0025% DENT® and the discs (5 mm diameter) containing different compounds or antibiotics (dissolved either in ethanol or DMSO) were placed on the agar surface. After incubation for 3 days in a microaerophilic atmosphere at 37° C., the diameter of the zone of inhibition was measured (Glupczynsky, 1996; McNulty et al., 2002).
# [3] = system: H. pylori; assay: Acid stability study (pH ~2.0, 2 h, then MIC/MBC by microbroth dilution); settings: Helicobacter pylori
# Experimental: Details of experimental protocol are described under Experiment 7. MIC/MBC values were determined by microbroth dilution assay.
# A 100 μL stock of CPP-1, NMC-1, NMC-2 and CPP-3 (1-2 mg/mL) was treated with 20-30 μL of 0.12 NHCl to bring the pH of the solution to ^˜2.0, and kept at 25° C. for 2 h (Funatogawa et al., 2004). Such acid-treated samples were then serially diluted (2 fold) with medium in 96-well microtitre plates to determine the MIC and the MBC values by microbroth dilution assay as detailed under Experiment 3.
# [4] = system: H. pylori; assay: Time kill kinetic analyses in biphasic culture; settings: for time to complete killing: 2×MIC (clarithromycin 0.08, CPP-1 and NMC-1 12.5, NMC-2 and CPP-3 25 μg/mL); for killing at MIC dose (1×MIC): up to 36 h
# [5] = system: H. pylori; assay: MIC and MBC by microbroth dilution assay; settings: Helicobacter pylori
# Experimental: The compounds, serially diluted ([…]) in Muller Hinton broth containing 5% FCS, were incubated in 96-well microtitre plate containing fresh cultures of HP001 (˜5.5×10^6 CFU/mL) or ATCC® 43504 (2.65×10^6 CFU/ml) in a final volume of […]. After 72-h of incubation under microaerophilic condition at 37° C., […] of cultures wherein no growth had been detected were streaked on fresh brain heart infusion agar plates for MBC determination.
# In microbroth dilution assay employing one clinical and one standard strain, both the bacteriostatic and the bactericidal values were determined for all four compounds as well as for clarithromycin (Table 4). Two-fold serial dilutions were prepared in 96-well microtitre plate containing a total volume of 0.1 mL Mueller Hinton broth supplemented with 5% FCS. A 3-day old liquid culture was diluted 10 times in Mueller Hinton broth and 0.1 mL of these cultures was inoculated into each well to give a final concentration of ˜10^6 CFU/mL. The plates were incubated for 3 days in a microaerophilic atmosphere at 37° C. Following incubation, the plates were examined visually, and the lowest concentration showing complete inhibition of growth was recorded as the MIC of the respective compound (Hachem et al., 1996). Aliquots (0.1 mL) of 72-h culture in which no growth had been detected were taken from the wells of the above microtitre plates and used to streak on fresh BHI agar plates.
# [6] = 72 h, panel of 6 clinical isolates and 4 standard strains, read-out: MIC Range
# [7] = clinical strain HP001, read-out: MIC
# [8] = clinical strain HP002, read-out: MIC
# [9] = clinical strain HP003, read-out: MIC
# [10] = clinical strain HP004, read-out: MIC
# [11] = clinical strain HP005, read-out: MIC
# [12] = clinical strain HP006, read-out: MIC
# [13] = standard strain 43504, read-out: MIC
# [14] = standard strain 43629, read-out: MIC
# [15] = standard strain 49503, read-out: MIC
# [16] = standard strain 700392, read-out: MIC
# [17] = 2 h, pH ~2.0, 2 h, 25° C., 43504, read-out: MBC, Acid treated
# [18] = 2 h, pH ~2.0, 2 h, 25° C., 43504, read-out: MIC, Acid treated
# [19] = 2 h, pH ~2.0, 2 h, 25° C., HP001, read-out: MBC, Acid treated
# [20] = 2 h, pH ~2.0, 2 h, 25° C., HP001, read-out: MIC, Acid treated
# [21] = not acid treated, 43504, read-out: MBC, Control
# [22] = not acid treated, 43504, read-out: MIC, Control
# [23] = not acid treated, HP001, read-out: MBC, Control
# [24] = not acid treated, HP001, read-out: MIC, Control
# [25] = ATCC43504, microbroth dilution, ATCC 43504
Structure (SMILES),MIC50 ([1]; 72 h) [µg/mL],"MIC [1, 6] [µg/mL]",MIC50 [1] [µg/mL],"MIC [1, 7] [µg/mL]","MIC [1, 8] [µg/mL]","MIC [1, 9] [µg/mL]","MIC [1, 10] [µg/mL]","MIC [1, 11] [µg/mL]","MIC [1, 12] [µg/mL]","MIC [1, 13] [µg/mL]","MIC [1, 14] [µg/mL]","MIC [1, 15] [µg/mL]","MIC [1, 16] [µg/mL]",Inhibition zone diameter (score) ([2]; ATCC standard strain 43504),Inhibition zone diameter (score) ([2]; ATCC standard strain 49503),Inhibition zone diameter (score) ([2]; ATCC standard strain 700392),Inhibition zone diameter (score) ([2]; clinical strain HP001),Inhibition zone diameter (score) ([2]; clinical strain HP002),"MBC [3, 17] [µg/mL]","MIC [3, 18] [µg/mL]",further results
"O=c1cc(-c2ccccc2)oc2cc(OCCCCN3CCCCC3)cc(O)c12 [CPP-3, 5-Hydroxy-2-phenyl-7-(4-piperidin-1-yl-butoxy)-chromen-4-one]",~12.5,6.25 to 100,12.5,25,25,< 12.5,< 12.5,< 12.5,< 12.5,12.5,100,25,25,++ (20-30 mm as ^++),++ (20-30 mm as ^++),++ (20-30 mm as ^++),++ (20-30 mm as ^++),+++ (that of >30 mm as ^+++),< 50000,50000,"zone of inhibition at 100 µg/disc ([2]; Helicobacter pylori, 100 and 200 μg/disc, majority of the strains, read-out: Activity class by inhibition zone diameter): > 30 mm; MBC [3, 19]: 50000 µg/mL; MIC [3, 20]: 25000 µg/mL; MBC [3, 21]: 25000 µg/mL; MIC [3, 22]: 12500 µg/mL; MBC [3, 23]: 25000 µg/mL; MIC [3, 24]: 12500 µg/mL; time to kill the bacteria totally ([4]; ATCC 43504, 50 μg/mL): about 12 h; time to complete killing ([4]; ATCC 43504): about 12 h; killing at MIC dose ([4]; ATCC 43504): no killing potency; killing at MIC dose (1×MIC) ([4]; HP001): could not exert any effect on bactericidal activity; MBC [5, 25]: 25 µg/mL; MIC [5, 25]: 12.5 µg/mL; MBC ([5]; microbroth dilution, HP001): 25 µg/mL; MIC ([5]; microbroth dilution, HP001): 12.5 µg/mL"
"CN1CCN(CCCOc2cc(O)c3c(=O)cc(-c4ccccc4)oc3c2)CC1 [NMC-2, 5-Hydroxy-7-[3-(4-methyl-piperazin-1-yl)-propoxy]-2-phenyl-chromen-4-one]",~12.5,6.25 to 100,12.5,12.5,6.25,12.5,12.5,6.25,12.5,12.5,25,3.12,12.5,+ (Inhibition zone diameter ranging 10-20 mm was given a score of ^+),+ (Inhibition zone diameter ranging 10-20 mm was given a score of ^+),+ (Inhibition zone diameter ranging 10-20 mm was given a score of ^+),+ (Inhibition zone diameter ranging 10-20 mm was given a score of ^+),++ (20-30 mm as ^++),< 50000,25000,"MIC Range ([1]; panel of 6 clinical isolates and 4 standard strains): 3.125 to 12.5 µg/mL; MBC [3, 19]: 50000 µg/mL; MIC [3, 20]: 25000 µg/mL; MBC [3, 21]: 50000 µg/mL; MIC [3, 22]: 12500 µg/mL; MBC [3, 23]: 25000 µg/mL; MIC [3, 24]: 12500 µg/mL; time to complete killing ([4]; ATCC 43504): ≤ 12 h; killing at MIC dose ([4]; ATCC 43504): could not produce complete killing; time at which killing/inhibition became evident ([4]; HP001, biphasic culture): > 9 h; killing at MIC dose (1×MIC) ([4]; HP001): did not kill the bacteria completely even at 36 h; MBC [5, 25]: 50 µg/mL; MIC [5, 25]: 12.5 µg/mL; MBC ([5]; microbroth dilution, HP001): 25 µg/mL; MIC ([5]; microbroth dilution, HP001): 12.5 µg/mL"
